# From US20230167132A1, “FORMS AND COMPOSITIONS OF INHIBITORS OF PLASMA KALLIKREIN” (Takeda Pharmaceutical Company Limited, priority 2020, published 2023)
# Several values for one entry are separate records, joined by “and”; a condition that tells them apart may be missing. Identical values can stand only once.
# Assays:
# Format in all cases: physicochemical
# [1] = Gravimetric vapour sorption (GVS) analysis; conditions: for GVS mass increase: between 0 and 90% RH; for XRPD post GVS analysis: change of solid form after GVS; for GVS hygroscopicity: classification in words
# [2] = Intrinsic Dissolution Rate (IDR), Sirius inForm; conditions: for IDR Sector 1 average (pH 2.0) / IDR Sector 1 pH 2.0: pH 2.0, 37° C.; for IDR Sector 1 pH 2.0: individual runs; for XRPD Analysis Post Dissolution: solid form of disc after IDR analysis
# Procedure: About 40 mg of the sample was compressed in a 6 mm disc recess, under 100 kg for 2 minutes, with greaseproof paper on the compression base, to form nondisintegrating discs. The discs were then plugged with a bung so that only one surface was exposed to the media during analysis and transferred to the Sirius inForm dissolution apparatus. Analysis was performed at 37° C. in 40 mL media (36 mL ISA water, 4 mL 0.1 M Acetate Phosphate Buffer). Dissolution data were collected over 4 pH sectors (pH 2.0, 5.5, 6.5, and 7.4) for a total of 2 hours—30 minutes per sector, with UV spectra collected every 30 seconds. A stir speed of 225 rpm was used with a 10 mm path length probe. The IDR was calculated based on the surface area of the 3/6/8 mm disc recess used (28.3 mm2 surface area). XRPD analysis was performed on all samples, both after compression of the material into the disc recess, and post dissolution analysis to observe any change in form. XRPD diffractograms were collected on the Bruker C2.
# [3] = Storage for one week at 40° C./75% RH and 25° C./97% RH, XRPD; conditions: for stability under storage: summary of scaled-up solid forms, conditions not restated
# [4] = one week (7 days), scaled-up / characterised material
# [5] = one week, material isolated from salt/cocrystal screening experiments
Compound,GVS mass increase [1] [%],XRPD post GVS analysis [1],"Storage 25° C./97% RH, XRPD [3, 4]","Storage 40° C./75% RH, XRPD [3, 4]","Storage 40° C./75% RH, XRPD [3, 5]",stability under storage [3],other results
O=C(NCc1ncn2ccc(Cl)c(F)c12)c1cn(Cc2cn3cc(C4CC4)ccc3n2)nn1.O=C(O)/C=C/C(=O)O [Compound 9],0.6,no observed change,unchanged by XRPD,unchanged by XRPD,unchanged,stable under storage,GVS hygroscopicity ([1]; listed as Compound 9 Pattern 1): slightly hygroscopic; GVS hygroscopicity ([1]; listed as fumarate): reduced hygroscopicity; IDR Sector 1 average (pH 2.0) [2]: 78.3 μg/min/cm^2; IDR Sector 1 pH 2.0 ([2]; listed as Fumarate Pattern 1): 76.8 μg/min/cm^2 and 79.8 μg/min/cm^2; XRPD Analysis Post Dissolution ([2]; listed as Compound 9 Pattern 1): Additional peaks observed in XRPD; XRPD Analysis Post Dissolution ([2]; listed as Fumarate Pattern 1): Additional peaks observed
"O=C(NCc1ncn2ccc(Cl)c(F)c12)c1cn(Cc2cn3cc(C4CC4)ccc3n2)nn1 [Amorphous form of Compound 1, N-((7-chloro-8-fluoroimidazo[1,5-a]pyridin-1-yl)methyl)-1-((6-cyclopropylimidazo[1,2-a]pyridin-2-yl)methyl)-1H-1,2,3-triazole-4-carboxamide]",,convert to Form 1,convert to Form 1,convert to Form 1,,,form conversion upon heating ([3]; heating to 150° C.): convert to Form 1
"O=C(NCc1ncn2ccc(Cl)c(F)c12)c1cn(Cc2cn3cc(C4CC4)ccc3n2)nn1 [Compound 1 Form 3, N-((7-chloro-8-fluoroimidazo[1,5-a]pyridin-1-yl)methyl)-1-((6-cyclopropylimidazo[1,2-a]pyridin-2-yl)methyl)-1H-1,2,3-triazole-4-carboxamide]",0.5,between 0 and 90% RH. Unchanged by XRPD post,Unchanged by XRPD,Unchanged by XRPD,,,GVS hygroscopicity [1]: Slightly hygroscopic
O=C(NCc1ncn2ccc(Cl)c(F)c12)c1cn(Cc2cn3cc(C4CC4)ccc3n2)nn1.O=P(O)(O)O [Compound 5],1.2,no observed change,unchanged by XRPD,unchanged by XRPD,unchanged,stable under storage,"GVS hygroscopicity ([1]; listed as Compound 5 Pattern 1): slightly hygroscopic; GVS hygroscopicity ([1]; listed as phosphate): reduced hygroscopicity; IDR Sector 1 average (pH 2.0) [2]: 404.1 μg/min/cm^2; IDR Sector 1 pH 2.0 ([2]; listed as Phosphate Pattern 1): 364.7 μg/min/cm^2 and 443.4 μg/min/cm^2; sector 1 IDR compared to free base form Compound 1 Form 1 / other forms ([2]; pH 2.0, comparison in words): increased sector 1 IDR; XRPD Analysis Post Dissolution ([2]; listed as Phosphate Pattern 1): Partial conversion to Compound 1"
CS(=O)(=O)O.O=C(NCc1ncn2ccc(Cl)c(F)c12)c1cn(Cc2cn3cc(C4CC4)ccc3n2)nn1 [Mesylate salt—Pattern 1],,,,,changes to its XRPD pattern with peaks corresponding to Compound 1 Form 1 being present,,
CS(=O)(=O)O.O=C(NCc1ncn2ccc(Cl)c(F)c12)c1cn(Cc2cn3cc(C4CC4)ccc3n2)nn1 [Mesylate salt—Pattern 2],,,,,unchanged,,
O=C(NCc1ncn2ccc(Cl)c(F)c12)c1cn(Cc2cn3cc(C4CC4)ccc3n2)nn1 [Compound 6],,,,,,stable under storage,
O=C(NCc1ncn2ccc(Cl)c(F)c12)c1cn(Cc2cn3cc(C4CC4)ccc3n2)nn1 [Compound 11],,,,,unchanged by XRPD,,
CS(=O)(=O)O.O=C(NCc1ncn2ccc(Cl)c(F)c12)c1cn(Cc2cn3cc(C4CC4)ccc3n2)nn1 [Mesylate salt—Pattern 3],,,,,unchanged,,
